Experimental data from the kinase profiling compilation of Christmann-Franck et al. (2016).

Key:
Experiment in all cases: radiometric filter-binding kinase assay
[1] = test system: AKT1 (human), P31749 [S473D]
BRSK2 (human) = BRSK2 (human) (UniProt Q8IWQ3)
CLK2 (human) = CLK2 (human) (UniProt P49760)
CSNK2A1 (human) = CSNK2A1 (human) (UniProt P68400)
DAPK1 (human) = DAPK1 (human) (UniProt P53355)
DYRK1A (human) = DYRK1A (human) (UniProt Q13627)
DYRK3 (human) = DYRK3 (human) (UniProt O43781)
EPHB3 (human) = EPHB3 (human) (UniProt P54753)
IKBKB (human) = IKBKB (human) (UniProt O14920)
IKBKE (human) = IKBKE (human) (UniProt Q14164)
IKBKE (human), sequence (Q14164 whole entry, looked up): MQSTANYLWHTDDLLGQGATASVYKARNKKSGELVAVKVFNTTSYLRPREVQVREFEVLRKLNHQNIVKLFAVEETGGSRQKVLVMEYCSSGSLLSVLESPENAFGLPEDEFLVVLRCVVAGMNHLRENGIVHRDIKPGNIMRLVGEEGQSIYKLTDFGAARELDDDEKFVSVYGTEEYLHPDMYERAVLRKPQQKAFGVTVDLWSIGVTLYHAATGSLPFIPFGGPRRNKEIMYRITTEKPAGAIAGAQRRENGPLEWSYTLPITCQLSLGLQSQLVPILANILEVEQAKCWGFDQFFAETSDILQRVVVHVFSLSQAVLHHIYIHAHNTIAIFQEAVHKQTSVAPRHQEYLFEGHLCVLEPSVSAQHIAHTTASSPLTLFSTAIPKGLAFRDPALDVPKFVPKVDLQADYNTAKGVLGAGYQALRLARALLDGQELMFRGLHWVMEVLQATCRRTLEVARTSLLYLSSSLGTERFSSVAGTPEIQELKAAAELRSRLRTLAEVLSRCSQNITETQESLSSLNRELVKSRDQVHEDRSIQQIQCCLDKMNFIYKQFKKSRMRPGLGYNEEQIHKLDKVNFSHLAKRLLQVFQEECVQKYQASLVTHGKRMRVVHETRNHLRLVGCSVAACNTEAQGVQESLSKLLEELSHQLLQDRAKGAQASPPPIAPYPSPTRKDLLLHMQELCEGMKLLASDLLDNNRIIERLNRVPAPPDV

IRAK4 (human) = IRAK4 (human) (UniProt Q9NWZ3)
MAP2K6 (human) = MAP2K6 (human) (UniProt P52564)
MAP3K11 (human) = MAP3K11 (human) (UniProt Q16584)
MAP3K7 TAB1 (human) = MAP3K7 TAB1 (human) (UniProt Q15750+O43318)
MAPK11 (human) = MAPK11 (human) (UniProt Q15759)
MAPK12 (human) = MAPK12 (human) (UniProt P53778)
MAPK14 (human) = MAPK14 (human) (UniProt Q16539)
MAPK14 (human), sequence (Q16539 whole entry, looked up): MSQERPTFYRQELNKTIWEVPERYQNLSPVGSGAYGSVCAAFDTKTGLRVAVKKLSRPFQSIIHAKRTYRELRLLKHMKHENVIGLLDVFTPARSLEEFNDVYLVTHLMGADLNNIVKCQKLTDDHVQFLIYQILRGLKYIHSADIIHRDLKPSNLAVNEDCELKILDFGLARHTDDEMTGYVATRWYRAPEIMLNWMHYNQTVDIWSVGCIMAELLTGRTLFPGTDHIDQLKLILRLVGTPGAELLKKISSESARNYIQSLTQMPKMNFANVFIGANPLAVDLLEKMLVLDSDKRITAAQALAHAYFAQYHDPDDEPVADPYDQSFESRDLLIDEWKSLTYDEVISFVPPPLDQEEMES

MAPK3 (human) = MAPK3 (human) (UniProt P27361)
MAPK3 (human), sequence (P27361 whole entry, looked up): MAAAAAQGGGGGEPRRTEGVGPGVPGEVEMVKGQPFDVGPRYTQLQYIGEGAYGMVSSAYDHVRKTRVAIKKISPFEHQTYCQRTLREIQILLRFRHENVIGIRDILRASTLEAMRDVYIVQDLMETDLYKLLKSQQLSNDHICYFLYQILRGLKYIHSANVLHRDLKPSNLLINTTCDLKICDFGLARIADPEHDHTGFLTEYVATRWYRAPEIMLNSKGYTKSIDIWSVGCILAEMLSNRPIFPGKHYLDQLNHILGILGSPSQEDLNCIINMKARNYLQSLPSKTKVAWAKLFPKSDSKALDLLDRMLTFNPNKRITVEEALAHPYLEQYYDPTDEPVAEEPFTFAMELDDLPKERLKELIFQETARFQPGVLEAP

MAPK8 (human) = MAPK8 (human) (UniProt P45983)
MAPKAPK3 (human) = MAPKAPK3 (human) (UniProt Q16644)
MAPKAPK5 (human) = MAPKAPK5 (human) (UniProt Q8IW41)
MKNK2 (human) = MKNK2 (human) (UniProt Q9HBH9)
NTRK1 (human) = NTRK1 (human) (UniProt P04629)
PAK4 (human) = PAK4 (human) (UniProt O96013)
PAK4 (human), sequence (O96013 whole entry, looked up): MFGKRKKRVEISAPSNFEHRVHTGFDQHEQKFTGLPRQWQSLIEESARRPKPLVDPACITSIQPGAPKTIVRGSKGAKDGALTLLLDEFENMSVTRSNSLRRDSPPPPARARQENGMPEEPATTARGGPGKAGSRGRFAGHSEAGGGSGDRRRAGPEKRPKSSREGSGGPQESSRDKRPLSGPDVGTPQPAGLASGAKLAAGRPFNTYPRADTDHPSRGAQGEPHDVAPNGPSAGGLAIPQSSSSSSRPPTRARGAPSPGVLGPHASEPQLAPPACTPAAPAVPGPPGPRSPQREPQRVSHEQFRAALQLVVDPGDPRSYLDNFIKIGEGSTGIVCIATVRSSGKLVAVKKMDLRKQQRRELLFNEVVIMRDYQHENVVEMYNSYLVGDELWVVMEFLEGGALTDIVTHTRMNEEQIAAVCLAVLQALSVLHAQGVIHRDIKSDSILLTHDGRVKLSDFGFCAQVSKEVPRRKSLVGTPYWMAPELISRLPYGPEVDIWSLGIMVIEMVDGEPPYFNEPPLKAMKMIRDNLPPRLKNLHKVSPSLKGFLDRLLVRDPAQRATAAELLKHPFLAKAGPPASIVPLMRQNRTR

PIM1 (human) = PIM1 (human) (UniProt P11309)
PIM2 (human) = PIM2 (human) (UniProt Q9P1W9)
PIM2 (human), sequence (Q9P1W9 whole entry, looked up): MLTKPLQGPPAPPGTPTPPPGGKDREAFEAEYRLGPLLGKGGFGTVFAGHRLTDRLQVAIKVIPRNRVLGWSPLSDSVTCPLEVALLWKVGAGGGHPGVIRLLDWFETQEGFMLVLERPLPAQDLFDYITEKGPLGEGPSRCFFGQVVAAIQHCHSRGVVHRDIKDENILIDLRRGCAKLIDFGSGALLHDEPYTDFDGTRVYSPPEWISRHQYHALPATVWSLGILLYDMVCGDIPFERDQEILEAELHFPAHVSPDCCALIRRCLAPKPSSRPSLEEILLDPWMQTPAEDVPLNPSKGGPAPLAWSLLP

PIM3 (human) = PIM3 (human) (UniProt Q86V86)
PLK1 (human) = PLK1 (human) (UniProt P53350)
PLK1 (human), sequence (P53350 whole entry, looked up): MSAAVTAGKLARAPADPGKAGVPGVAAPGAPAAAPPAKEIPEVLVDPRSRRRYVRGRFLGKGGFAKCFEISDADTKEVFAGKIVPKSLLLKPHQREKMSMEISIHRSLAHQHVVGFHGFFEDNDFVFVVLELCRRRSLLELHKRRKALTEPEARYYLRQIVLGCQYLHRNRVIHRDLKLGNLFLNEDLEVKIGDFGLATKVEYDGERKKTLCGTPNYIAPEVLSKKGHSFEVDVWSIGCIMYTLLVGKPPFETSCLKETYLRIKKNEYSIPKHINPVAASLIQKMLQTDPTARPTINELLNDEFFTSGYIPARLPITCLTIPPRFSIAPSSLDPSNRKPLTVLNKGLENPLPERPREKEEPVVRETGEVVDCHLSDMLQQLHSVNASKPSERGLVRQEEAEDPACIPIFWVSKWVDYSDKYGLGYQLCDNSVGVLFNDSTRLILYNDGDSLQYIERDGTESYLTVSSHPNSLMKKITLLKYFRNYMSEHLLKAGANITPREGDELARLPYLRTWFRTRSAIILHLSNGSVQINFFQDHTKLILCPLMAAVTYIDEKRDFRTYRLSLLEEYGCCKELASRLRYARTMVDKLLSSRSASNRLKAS

ROCK2 (rat) = conditions: accession and sequence are those of the human protein
RPS6KA1 KD1 KD2 (human) = RPS6KA1 KD1 KD2 (human) (UniProt Q15418)
RPS6KA1 KD1 KD2 (human), sequence (Q15418 whole entry, looked up): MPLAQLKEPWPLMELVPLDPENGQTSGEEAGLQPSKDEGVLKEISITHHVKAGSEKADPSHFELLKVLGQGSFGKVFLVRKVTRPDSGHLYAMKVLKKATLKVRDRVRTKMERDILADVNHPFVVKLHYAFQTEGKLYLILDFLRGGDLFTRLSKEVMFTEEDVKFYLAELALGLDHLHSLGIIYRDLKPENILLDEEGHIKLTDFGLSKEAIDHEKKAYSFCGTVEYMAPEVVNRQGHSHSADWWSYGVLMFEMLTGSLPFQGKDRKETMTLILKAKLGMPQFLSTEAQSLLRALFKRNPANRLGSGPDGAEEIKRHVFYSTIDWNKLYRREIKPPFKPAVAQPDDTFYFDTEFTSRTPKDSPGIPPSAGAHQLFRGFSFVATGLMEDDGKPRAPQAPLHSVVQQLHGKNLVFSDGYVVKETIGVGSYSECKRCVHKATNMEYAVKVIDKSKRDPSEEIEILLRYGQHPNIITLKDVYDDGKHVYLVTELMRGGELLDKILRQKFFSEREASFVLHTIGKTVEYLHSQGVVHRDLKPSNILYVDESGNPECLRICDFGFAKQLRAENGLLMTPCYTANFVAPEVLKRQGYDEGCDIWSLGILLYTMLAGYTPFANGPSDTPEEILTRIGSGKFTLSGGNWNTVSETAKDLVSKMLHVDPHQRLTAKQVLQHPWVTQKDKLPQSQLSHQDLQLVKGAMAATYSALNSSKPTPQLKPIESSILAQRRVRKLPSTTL

RPS6KA3 KD1 KD2 (human) = RPS6KA3 KD1 KD2 (human) (UniProt P51812)
[2] = test system: RPS6KB1 (human), P23443 [T412E]
[3] = test system: SGK1 (human), O00141 [S422D]
STK3 (human) = STK3 (human) (UniProt Q13188)
TBK1 (human) = TBK1 (human) (UniProt Q9UHD2)
TBK1 (human), sequence (Q9UHD2 whole entry, looked up): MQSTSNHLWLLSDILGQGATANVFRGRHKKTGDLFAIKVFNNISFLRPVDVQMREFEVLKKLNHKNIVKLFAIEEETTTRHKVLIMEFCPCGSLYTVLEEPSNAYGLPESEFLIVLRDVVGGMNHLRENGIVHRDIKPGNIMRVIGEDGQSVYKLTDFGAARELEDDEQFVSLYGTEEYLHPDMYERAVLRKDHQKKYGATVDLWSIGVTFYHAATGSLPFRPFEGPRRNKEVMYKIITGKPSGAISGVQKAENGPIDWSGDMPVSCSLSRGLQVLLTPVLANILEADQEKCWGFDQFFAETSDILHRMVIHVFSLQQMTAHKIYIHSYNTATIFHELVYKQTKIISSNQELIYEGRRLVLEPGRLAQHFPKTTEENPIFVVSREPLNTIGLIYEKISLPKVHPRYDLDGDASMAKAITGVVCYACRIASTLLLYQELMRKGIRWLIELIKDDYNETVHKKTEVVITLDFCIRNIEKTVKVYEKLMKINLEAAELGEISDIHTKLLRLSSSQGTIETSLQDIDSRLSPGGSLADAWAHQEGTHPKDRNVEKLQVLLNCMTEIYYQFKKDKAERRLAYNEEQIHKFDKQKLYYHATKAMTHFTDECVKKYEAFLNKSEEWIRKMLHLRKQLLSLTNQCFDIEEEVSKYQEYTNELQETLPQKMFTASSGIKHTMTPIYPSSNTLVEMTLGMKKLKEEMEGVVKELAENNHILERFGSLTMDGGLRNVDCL

DYRK3 (human), sequence (O43781 whole entry, looked up): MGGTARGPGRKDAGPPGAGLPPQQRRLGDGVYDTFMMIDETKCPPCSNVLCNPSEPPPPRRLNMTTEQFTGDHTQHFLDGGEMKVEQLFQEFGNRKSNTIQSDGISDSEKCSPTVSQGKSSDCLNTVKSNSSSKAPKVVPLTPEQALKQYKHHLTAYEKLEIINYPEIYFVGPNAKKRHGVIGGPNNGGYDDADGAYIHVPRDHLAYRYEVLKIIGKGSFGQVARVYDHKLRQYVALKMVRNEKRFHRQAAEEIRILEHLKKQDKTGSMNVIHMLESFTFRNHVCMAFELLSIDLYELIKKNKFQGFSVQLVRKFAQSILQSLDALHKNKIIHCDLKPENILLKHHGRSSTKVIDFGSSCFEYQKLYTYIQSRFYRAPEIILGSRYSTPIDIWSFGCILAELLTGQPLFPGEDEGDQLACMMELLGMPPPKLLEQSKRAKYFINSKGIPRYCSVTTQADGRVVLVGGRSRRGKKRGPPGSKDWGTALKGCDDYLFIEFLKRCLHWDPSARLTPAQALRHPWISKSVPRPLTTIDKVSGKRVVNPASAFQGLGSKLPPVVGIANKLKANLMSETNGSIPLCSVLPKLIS

`N#Cc1c(O)c2c(-c3ccc(-c4ccccc4O)cc3)csc2[nH]c1=O` gave a residual activity ([1]; compound 10.0 µM) of 94%, a residual activity ([1]; compound 50.0 µM) of 62% and a residual activity ([1]; compound 100.0 µM) of 78%. For the same compound, the residual activity (BRSK2 (human); compound 10.0 µM) was 64%, the residual activity (BRSK2 (human); compound 50.0 µM) was 63% and the residual activity (BRSK2 (human); compound 100.0 µM) was 28%. The residual activity (CLK2 (human); compound 10.0 µM) was 81%, the residual activity (CLK2 (human); compound 100.0 µM) was 30% and the residual activity (CSNK2A1 (human); compound 10.0 µM) was 110%. For the same compound, the residual activity (CSNK2A1 (human); compound 50.0 µM) was 95%, the residual activity (CSNK2A1 (human); compound 100.0 µM) was 86% and the residual activity (DAPK1 (human); compound 10.0 µM) was 107%. For the same compound, the residual activity (DAPK1 (human); compound 100.0 µM) was 83%, the residual activity (DYRK1A (human); compound 10.0 µM) was 75% and the residual activity (DYRK1A (human); compound 50.0 µM) was 60%. The residual activity (DYRK1A (human); compound 100.0 µM) was 26%, the residual activity (DYRK3 (human); compound 10.0 µM) was 54% and the residual activity (DYRK3 (human); compound 50.0 µM) was 47%. The residual activity (DYRK3 (human); compound 100.0 µM) was 6%, the residual activity (EPHB3 (human); compound 10.0 µM) was 81% and the residual activity (EPHB3 (human); compound 100.0 µM) was 55%. The residual activity (IKBKB (human); compound 10.0 µM) was 86%, the residual activity (IKBKB (human); compound 50.0 µM) was 60% and the residual activity (IKBKB (human); compound 100.0 µM) was 39%. For the same compound, the residual activity (IKBKE (human); compound 10.0 µM) was 69%, the residual activity (IKBKE (human); compound 50.0 µM) was 47% and the residual activity (IKBKE (human); compound 100.0 µM) was 12%. For the same compound, the residual activity (IRAK4 (human); compound 10.0 µM) was 82%, the residual activity (IRAK4 (human); compound 100.0 µM) was 34% and the residual activity (MAP2K6 (human); compound 10.0 µM) was 85%. For the same compound, the residual activity (MAP2K6 (human); compound 100.0 µM) was 84%, the residual activity (MAP3K11 (human); compound 10.0 µM) was 43% and the residual activity (MAP3K11 (human); compound 100.0 µM) was 4%. It also gave a residual activity (MAP3K7 TAB1 (human); compound 10.0 µM) of 83%, a residual activity (MAP3K7 TAB1 (human); compound 100.0 µM) of 72% and a residual activity (MAPK11 (human); compound 10.0 µM) of 89%. For the same compound, the residual activity (MAPK11 (human); compound 50.0 µM) was 84%, the residual activity (MAPK11 (human); compound 100.0 µM) was 77% and the residual activity (MAPK12 (human); compound 10.0 µM) was 95%. For the same compound, the residual activity (MAPK12 (human); compound 50.0 µM) was 80%, the residual activity (MAPK12 (human); compound 100.0 µM) was 83% and the residual activity (MAPK14 (human); compound 10.0 µM) was 97%. It also gave a residual activity (MAPK14 (human); compound 50.0 µM) of 122%, a residual activity (MAPK14 (human); compound 100.0 µM) of 90% and a residual activity (MAPK3 (human); compound 10.0 µM) of 83%. It also gave a residual activity (MAPK3 (human); compound 50.0 µM) of 102%, a residual activity (MAPK3 (human); compound 100.0 µM) of 63% and a residual activity (MAPK8 (human); compound 10.0 µM) of 99%. It also gave a residual activity (MAPK8 (human); compound 50.0 µM) of 102%, a residual activity (MAPK8 (human); compound 100.0 µM) of 93% and a residual activity (MAPKAPK3 (human); compound 10.0 µM) of 57%. The residual activity (MAPKAPK3 (human); compound 50.0 µM) was 48%, the residual activity (MAPKAPK3 (human); compound 100.0 µM) was 8% and the residual activity (MAPKAPK5 (human); compound 10.0 µM) was 52%. The residual activity (MAPKAPK5 (human); compound 50.0 µM) was 25%, the residual activity (MAPKAPK5 (human); compound 100.0 µM) was 15% and the residual activity (MKNK2 (human); compound 10.0 µM) was 102%. The residual activity (MKNK2 (human); compound 50.0 µM) was 80%, the residual activity (MKNK2 (human); compound 100.0 µM) was 86% and the residual activity (NTRK1 (human); compound 10.0 µM) was 69%. It also gave a residual activity (NTRK1 (human); compound 100.0 µM) of 28%, a residual activity (PAK4 (human); compound 10.0 µM) of 52% and a residual activity (PAK4 (human); compound 50.0 µM) of 38%. The residual activity (PAK4 (human); compound 100.0 µM) was 41%, the residual activity (PIM1 (human); compound 10.0 µM) was 26% and the residual activity (PIM1 (human); compound 50.0 µM) was 5%. For the same compound, the residual activity (PIM1 (human); compound 100.0 µM) was 7%, the residual activity (PIM2 (human); compound 10.0 µM) was 71% and the residual activity (PIM2 (human); compound 50.0 µM) was 17%. It also gave a residual activity (PIM2 (human); compound 100.0 µM) of 18%, a residual activity (PIM3 (human); compound 10.0 µM) of 18% and a residual activity (PIM3 (human); compound 50.0 µM) of 5%. For the same compound, the residual activity (PIM3 (human); compound 100.0 µM) was 7%, the residual activity (PLK1 (human); compound 10.0 µM) was 88% and the residual activity (PLK1 (human); compound 50.0 µM) was 28%. For the same compound, the residual activity (PLK1 (human); compound 100.0 µM) was 25%, the residual activity (ROCK2 (rat); compound 10.0 µM) was 91% and the residual activity (ROCK2 (rat); compound 50.0 µM) was 49%. It also gave a residual activity (ROCK2 (rat); compound 100.0 µM) of 75%, a residual activity (RPS6KA1 KD1 KD2 (human); compound 10.0 µM) of 80% and a residual activity (RPS6KA1 KD1 KD2 (human); compound 50.0 µM) of 9%. For the same compound, the residual activity (RPS6KA1 KD1 KD2 (human); compound 100.0 µM) was 12%, the residual activity (RPS6KA3 KD1 KD2 (human); compound 10.0 µM) was 74% and the residual activity (RPS6KA3 KD1 KD2 (human); compound 50.0 µM) was 27%. For the same compound, the residual activity (RPS6KA3 KD1 KD2 (human); compound 100.0 µM) was 13%, the residual activity ([2]; compound 10.0 µM) was 78% and the residual activity ([2]; compound 50.0 µM) was 66%. The residual activity ([2]; compound 100.0 µM) was 38%, the residual activity ([3]; compound 10.0 µM) was 103% and the residual activity ([3]; compound 50.0 µM) was 54%. The residual activity ([3]; compound 100.0 µM) was 48%, the residual activity (STK3 (human); compound 10.0 µM) was 60% and the residual activity (STK3 (human); compound 50.0 µM) was 36%. For the same compound, the residual activity (STK3 (human); compound 100.0 µM) was 20%, the residual activity (TBK1 (human); compound 10.0 µM) was 67% and the residual activity (TBK1 (human); compound 50.0 µM) was 55%. For the same compound, the residual activity (TBK1 (human); compound 100.0 µM) was 29%.
